Patent US4839350A, “Cephalosporin compounds and the production thereof” (Meiji Seika Kaisha, Ltd., priority 1984, dated 1989)
Counter-ions that a name gives are not always drawn. Like-named read-outs stand apart in the source and are kept apart here.

Experiments:
Format in all cases: cell-based
[1] = system: Pseudomonas aeruginosa MB 3833; assay: MIC by agar-dilution method, Pseudomonas aeruginosa MB 3833
Excerpt: (§1) The compounds of this invention are all novel compounds.

[2] = system: Serratia marcescens No. 1; assay: MIC by agar-dilution method, Serratia marcescens No. 1
Excerpt: as §1

[3] = system: Escherichia coli NIHJ JC-2; assay: MIC by agar-dilution method, Escherichia coli NIHJ JC-2
Excerpt: as §1

Proteus mirabilis GN 79 = assay: MIC by agar-dilution method, Proteus mirabilis GN 79
Excerpt: as §1

Proteus rettgeri GN 624 = assay: MIC by agar-dilution method, Proteus rettgeri GN 624
Excerpt: as §1

[4] = system: Staphylococcus aureus 209P JC-1; assay: MIC by agar-dilution method, Staphylococcus aureus 209P JC-1
Excerpt: as §1

[5] = system: Klebsiella pneumoniae PCI 602; assay: MIC by agar-dilution method, Klebsiella pneumoniae PCI 602
Excerpt: as §1

[6] = system: Salmonella typhimurium LT-2; assay: MIC by agar-dilution method, Salmonella typhimurium LT-2
Excerpt: as §1

[7] = system: Staphylococcus aureus Smith; assay: MIC by agar-dilution method, Staphylococcus aureus Smith
Excerpt: as §1

Proteus vulgaris GN 76 = assay: MIC by agar-dilution method, Proteus vulgaris GN 76
Excerpt: as §1

[8] = Providencia rettgeri, GN624, read-out: MIC.
[9] = Salmonella enterica, read-out: MIC.

SMILES | MIC ([1]; MB3833, read-out: MIC.) [µg/mL] | MIC ([2]; read-out: MIC.) [µg/mL] | MIC ([3]; NIHJJC2, read-out: MIC.) [µg/mL] | MIC (Proteus mirabilis GN 79; GN79, read-out: MIC.) [µg/mL] | MIC (Proteus rettgeri GN 624; [8]) [µg/mL] | MIC ([4]; read-out: MIC.) [µg/mL] | MIC ([5]; PCI602, read-out: MIC.) [µg/mL] | MIC [6, 9] [µg/mL] | MIC ([7]; read-out: MIC.) [µg/mL] | MIC (Proteus vulgaris GN 76; GN76, read-out: MIC.) [µg/mL] | MIC [1] [µg/mL] | MIC [2] [µg/mL] | MIC [3] [µg/mL] | MIC (Proteus mirabilis GN 79) [µg/mL] | MIC (Proteus rettgeri GN 624) [µg/mL] | MIC [4] [µg/mL] | MIC [5] [µg/mL] | MIC [6] [µg/mL] | MIC [7] [µg/mL] | MIC (Proteus vulgaris GN 76) [µg/mL]
CO/N=C(\C(=O)NC1C(=O)N2C(C(=O)O)=C(C=Cc3ccccc3F)CSC12)c1csc(N)n1 (mixture of isomers) [Example 14, 7-[2-methoxyimino-2-(2-aminothiazol-4-yl)acetamido]-3-[2-(o-fluorophenyl)vinyl]-3-cephem-4-carboxylic acid trifluoroacetate (syn-isomer, mixed cis- and trans-isomers)] | > 50 | 1.56 | 3.13 | 0.2 | 1.56 | 0.2 | 3.13 | 3.13 | 0.39 | 0.2 | – | – | – | – | – | – | – | – | – | –
Cc1ncsc1C=CC1=C(C(=O)O)N2C(=O)C(NC(=O)C(=NOCC(=O)O)c3csc(N)n3)C2SC1.O=C(O)C(F)(F)F (single isomer, unassigned) [Example 16, 7-[2-carboxymethoxyimino-2-(2-aminothiazol-4-yl)acetamido]-3-[2-(4-methylthiazol-5yl)vinyl]-3-cephem-4-carboxylic acid trifluoroacetate (syn-isomer, trans-isomer)] | – | – | – | – | – | – | – | – | – | – | 12.5 | 0.05 | 0.39 | 0.05 | 1.56 | 3.13 | 0.20 | 0.10 | 3.13 | ≤ 0.025
CO/N=C(\C(=O)NC1C(=O)N2C(C(=O)O)=C(/C=C\c3scnc3C)CSC12)c1csc(N)n1 (stereo not drawn) [Example 10, 7-[2-methoxyimino-2-(2-aminothiazol-4-yl)acetamido]-3-[2-(4-methylthiazol-5-yl)vinyl]-3-cephem-4-carboxylic acid trifluoroacetate (cyn-isomer, cis-isomer)] | 25 | 0.39 | 0.39 | 0.39 | 3.13 | 0.2 | 0.39 | 0.39 | 0.39 | 0.2 | – | – | – | – | – | – | – | – | – | –
CO/N=C(\C(=O)NC1C(=O)N2C(C(=O)O)=C(/C=C\c3ccccc3)CSC12)c1csc(N)n1 (stereo not drawn) [Example 11, 7-[2-methoxyimino-2-(2-aminothiazol-4-yl)acetamido]-3-(2-phenylvinyl)-3-cephem-4-carboxylic acid trifluoroacetate (cyn-isomer, cis-isomer)] | > 50 | 1.56 | 3.13 | 0.78 | 3.13 | 0.78 | 3.13 | 6.25 | 0.78 | 0.78 | – | – | – | – | – | – | – | – | – | –
CO/N=C(\C(=O)NC1C(=O)N2C(C(=O)O)=C(/C=C\c3ccco3)CSC12)c1csc(N)n1 (stereo not drawn) [Example 12, 7-[2-methoxyimino-2-(2-aminothiazol-4-yl)acetamido]-3-[2-(2-furyl)vinyl]-3-cephem-4-carboxylic acid sodium salt (cyn-isomer, cis-isomer)] | > 50 | 1.56 | 3.13 | 0.78 | 3.13 | 0.39 | 1.56 | 1.56 | 0.78 | 0.39 | – | – | – | – | – | – | – | – | – | –
CO/N=C(\C(=O)NC1C(=O)N2C(C(=O)O)=C(/C=C/c3ccc([N+](=O)[O-])o3)CSC12)c1csc(N)n1 (stereo not drawn) [Example 13, 7-[2-methoxyimino-2-(2-aminothiazol-4-yl)acetamido]-3-[2-(5-nitor-2-furyl)vinyl]-3-cephem-4-carboxylic acid sodium salt (syn-isomer, trans-isomer)] | > 50 | 6.25 | 6.25 | 12.5 | 3.13 | 6.25 | 3.13 | 6.25 | 6.25 | 3.13 | – | – | – | – | – | – | – | – | – | –
CO/N=C(\C(=O)NC1C(=O)N2C(C(=O)O)=C(C=Cc3sc[n+](C)c3C)CSC12)c1csc(N)n1 (stereo not drawn) [Example 15, 7-[2-methoxyimino-2-(2-aminothiazol-4-yl)acetamido]-3-[2-(3,4-dimethyl-5-thiazolio)vinyl]-3-cephem-4-carboxylic acid di-trifluoroacetate (syn-isomer)] | > 50 | 0.1 | 0.1 | 0.78 | 0.39 | 0.78 | 0.1 | 0.1 | 0.78 | 0.39 | – | – | – | – | – | – | – | – | – | –
CO/N=C(\C(=O)NC1C(=O)N2C(C(=O)O)=C(/C=C/c3scnc3C)CSC12)c1csc(N)n1 (stereo not drawn) [Example 18, 7-[2-methoxyimino-2-(2-aminothiazol-4-yl)acetamido-3-[2-(4-methylthiazol-5-yl)vinyl]-3cephem-4-carboxylic acid sodium salt (syn-isomer, trans-isomer)] | 50 | 0.39 | 0.78 | – | 0.39 | 0.39 | 0.39 | 0.78 | 0.39 | 0.1 | – | – | – | – | – | – | – | – | – | –
CO/N=C(\C(=O)NC1C(=O)N2C(C(=O)O)=C(/C=C\c3scnc3Cl)CSC12)c1csc(N)n1 (stereo not drawn) [Example 21, 7-[2-methoxyimino-2-(2-aminothiazol-4-yl)acetamido]-3-[2-(4-chlorothiazol-5-yl)vinyl]-3-cephem-4-carboxylic acid (syn-isomer, cis-isomer) sodium salt] | 12.5 | 0.2 | 0.2 | 0.2 | 1.56 | 0.1 | 0.1 | 0.2 | 0.2 | 0.1 | – | – | – | – | – | – | – | – | – | –
CO/N=C(\C(=O)NC1C(=O)N2C(C(=O)O)=C(/C=C/c3cnc(C)s3)CSC12)c1csc(N)n1 (stereo not drawn) [Example 30, 7-[2-methoxyimino-2-(2-aminothiazol-4-yl)acetamido]-3-[2-(2-methylthiazol-5-yl)vinyl]-3-cephem-4-carboxylic acid trifluoroacetate (syn-isomer, trans-isomer)] | > 50 | 0.2 | 0.78 | 0.2 | 0.2 | 0.78 | 0.78 | 0.39 | 1.56 | 0.1 | – | – | – | – | – | – | – | – | – | –
CO/N=C(\C(=O)NC1C(=O)N2C(C(=O)O)=C(/C=C\c3cnc(C)s3)CSC12)c1csc(N)n1 (stereo not drawn) [Example 31, 7-[2-methoxyimino-2-(2-aminothiazol-4-yl)acetamido]-3-[2-(2-methylthiazol-5-yl)vinyl]-3-cephem-4-carboxylic acid trifluoroacetate (syn-isomer, cis-isomer)] | > 50 | 0.78 | 1.56 | 0.78 | 0.78 | 0.78 | 1.56 | 1.56 | 1.56 | 0.2 | – | – | – | – | – | – | – | – | – | –
CO/N=C(\C(=O)NC1C(=O)N2C(C(=O)O)=C(/C=C\c3cscn3)CSC12)c1csc(N)n1 (stereo not drawn) [Example 32, 7-[2-methoxyimino-2-(2-aminothiazol-4-yl)acetamido]-3-[2-(thiazol-4-yl)vinyl]-3-cephem-4-carboxylic acid sodium salt (syn-isomer, cis-isomer)] | 100 | 0.78 | 1.56 | – | 6.25 | 0.39 | 1.56 | 0.78 | 0.78 | 0.1 | – | – | – | – | – | – | – | – | – | –
CO/N=C(\C(=O)NC1C(=O)N2C(C(=O)O)=C(/C=C\c3cncs3)CSC12)c1csc(N)n1 (stereo not drawn) [Example 33, 7-[2-methoxyimino-2-(2-aminothiazol-4-yl)acetamido]-3-[2-(thiazol-5-yl)vinyl]-3-cephem-4-carboxylic acid sodium salt (syn-isomer, cis-isomer)] | 25 | 0.39 | 0.39 | 0.39 | 0.78 | 0.39 | 0.2 | 0.39 | 0.39 | 0.1 | – | – | – | – | – | – | – | – | – | –
CO/N=C(\C(=O)NC1C(=O)N2C(C(=O)O)=C(/C=C\c3sc(Cl)nc3Cl)CSC12)c1csc(N)n1 (stereo not drawn) [Example 34, 7-[2-methoxyimino-2-(2-aminothiazol-4-yl)acetamido]-3-[2-(2,4-dichlorothiazol-5-yl)vinyl]-3-cephem-4-carboxylic acid sodium salt (syn-isomer, cis-isomer)] | 100 | 1.56 | 3.13 | 0.78 | 1.56 | 0.2 | 3.13 | 3.13 | 0.2 | 1.56 | – | – | – | – | – | – | – | – | – | –
